Laboratory results taken from patent US6127519A, “Calcitonin derivatives” (Tsumura & Co., priority 1990, dated 2000).
Numbered stars: 1 amine (or outer) side, 2 acyl side, 3 side chain; on linkers, the order of the positions; unused ones are H or OH. Bridge positions count the residues as written; N and C are the ends. Peptide text beside a SMILES is read from it. Suc = O=C(CCC(=O)[*:2])[*:1]

Test system: calcium concentration in the serum
Experiment: Test 1: reduction of calcium level in serum after tail vein administration to rats
Format: in vivo, rats of the Wistar strain
Conditions: 1 ml/kg tail vein, female Wistar rats
Outline: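 Female Wistar rats, six weeks old, were assigned in groups of 4 and given the test peptides through the tail vein at 1 ml/kg. The peptides were dissolved in 1% aqueous sodium acetate (pH 4,0) containing 0.1% BSA. Blood (0.3 ml) was drawn from the neck vein immediately before dosing and at set times afterward. Serum was separated by centrifuging at 3500 rpm for 20 minutes. Calcium was measured on a TBA-380 analyzer with a Wako o-cpc kit, and the percentage reduction in serum calcium was calculated.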

[1] = concentration 83 ng/ml, 0 hour (just before administration)
[2] = concentration 83 ng/ml, 2 hours
[3] = concentration 83 ng/ml, 4 hours
[4] = concentration 83 ng/ml, 6 hours
[5] = concentration 830 ng/ml, 0 hour (just before administration)
[6] = concentration 830 ng/ml, 1 hour
[7] = concentration 830 ng/ml, 2 hours
[8] = concentration 830 ng/ml, 4 hours
[9] = concentration 830 ng/ml, 6 hours

Row | SMILES | Serum calcium level as percent of pre-dose baseline [1] [%] | Serum calcium level as percent of pre-dose baseline (concentration 83 ng/ml, 1 hour) [%] | Serum calcium level as percent of pre-dose baseline [2] [%] | Serum calcium level as percent of pre-dose baseline [3] [%] | Serum calcium level as percent of pre-dose baseline [4] [%] | Serum calcium level as percent of pre-dose baseline [5] [%] | Serum calcium level as percent of pre-dose baseline [6] [%] | Serum calcium level as percent of pre-dose baseline [7] [%] | Serum calcium level as percent of pre-dose baseline [8] [%] | Serum calcium level as percent of pre-dose baseline [9] [%]
1 | CC[C@H](C)[C@H](NC(=O)[C@H](C)NC(=O)[C@@H](NC(=O)[C@H](CCC(N)=O)NC(=O)[C@@H]1CCCN1C(=O)[C@H](Cc1ccc(O)cc1)NC(=O)[C@@H](NC(=O)[C@H](Cc1c[nH]cn1)NC(=O)[C@H](Cc1ccccc1)NC(=O)[C@H](CCCCN)NC(=O)[C@H](CC(N)=O)NC(=O)[C@H](CC(C)C)NC(=O)[C@H](CC(=O)O)NC(=O)[C@H](CCC(N)=O)NC(=O)[C@H](CO)NC(=O)[C@H](CC(C)C)NC(=O)[C@H](CCCCN)NC(=O)CNC(=O)[C@H](CC(C)C)NC(=O)[C@H](CC(C)C)NC(=O)[C@@H]1CCCCNC(=O)CCC(=O)N[C@@H](CC(N)=O)C(=O)N[C@@H](CC(C)C)C(=O)N[C@@H](CO)C(=O)N[C@@H]([C@@H](C)O)C(=O)N1)[C@@H](C)O)[C@@H](C)O)C(=O)NCC(=O)N[C@H](C(=O)NCC(=O)N[C@@H](C)C(=O)N1CCC[C@H]1C(N)=O)C(C)C [Peptide No. 32] (NLSTKLLGKLSQDLNKFHTYPQTAIGVGAP-NH2; linker N-5 via Suc) | 100.0 | 82.4 | 76.1 | 79.1 | 84.1 | 100.0 | 84.5 | 73.6 | 65.9 | 64.2
2 | CC[C@H](C)[C@H](NC(=O)[C@H](C)NC(=O)[C@@H](NC(=O)[C@H](CCC(N)=O)NC(=O)[C@@H]1CCCN1C(=O)[C@H](Cc1ccc(O)cc1)NC(=O)[C@@H](NC(=O)[C@H](CCC(N)=O)NC(=O)[C@H](CC(C)C)NC(=O)[C@H](CCCCN)NC(=O)[C@H](Cc1c[nH]cn1)NC(=O)[C@H](CC(C)C)NC(=O)[C@H](CCC(=O)O)NC(=O)[C@H](CCC(N)=O)NC(=O)[C@H](CO)NC(=O)[C@H](CC(C)C)NC(=O)[C@H](CCCCN)NC(=O)CNC(=O)[C@H](CC(C)C)NC(=O)[C@@H]1CCCN1C(=O)[C@@H]1CSSC[C@H](N)C(=O)NCC(=O)N[C@@H](CC(N)=O)C(=O)N[C@@H](CC(C)C)C(=O)N[C@@H](CO)C(=O)N[C@@H]([C@@H](C)O)C(=O)N1)[C@@H](C)O)[C@@H](C)O)C(=O)NCC(=O)N[C@H](C(=O)NCC(=O)N[C@@H](C)C(=O)N1CCC[C@H]1C(N)=O)C(C)C [Peptide No. 12] (H-CGNLSTCPLGKLSQELHKLQTYPQTAIGVGAP-NH2; disulfide 1-7) | 100.0 | 88.0 | 92.4 | 83.4 | 84.0 | 109.0 | 77.0 | 86.8 | 85.8 | 88.0
